According to article PMC8878317, “Chemogenomics identifies acetyl-coenzyme A synthetase as a target for malaria treatment and prevention” (Cell Chemical Biology, 2022):

Tested on: P. falciparum 3D7 parasites
Assay: Metabolomic profiling of compound-treated parasites (LC/MS);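 as to Metabolite data: 3-Phosphoglycerate: Log2 fold change in abundance versus untreated parasite controls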;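 as to Metabolite data: Myo-Inositol: Log2 fold change in abundance versus untreated parasite controls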;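 as to Metabolite data: N-Carbamoyl-L-Aspartate: Log2 fold change in abundance versus untreated parasite controls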;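 as to Metabolite data: Nicotinate: Log2 fold change in abundance versus untreated parasite controls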
Assay type: cell-based
Parameters: Metabolite data: dTMP / Metabolite data: GMP / Metabolite data: S-Adenosyl-L-Homocysteine / Metabolite data: 1_3-Bisphosphoglyceric acid: scale not given here
Outline: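 Magnetically purified trophozoites (1×10^8 parasites/mL) recovered 1 h in RPMI 1640, incubated a further 2.5 h, quenched in 90% methanol with labeled aspartate. Extracts analysed by reverse-phase C18 LC with negative-mode Orbitrap MS; peak areas normalized to internal standards, blank-subtracted and averaged by condition.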

SMILES: CC1(C)N=C(N)N=C(N)N1OCCCOc1cc(Cl)c(Cl)cc1Cl [WR99210]
- Metabolite data: 1_3-Bisphosphoglyceric acid: 0
- Metabolite data: 2_3-Diphosphoglyceric acid: 0.15
- Metabolite data: 3-Phosphoglycerate: 0
- Metabolite data: 4-Aminobutyrate: 0.89
- Metabolite data: 4-Phosphopantothenate: 0.06
- Metabolite data: 4-phosphopantetheine: 0
- Metabolite data: 5-aminopentanoic acid: 0
- Metabolite data: 5-phosphoribosyl-1-pyrophosphate: 0
- Metabolite data: 6-Phospho-D-Gluconate: 0.03
- Metabolite data: ADP-D-Glucose: -0.24
- Metabolite data: Acetyl-CoA: 0.03
- Metabolite data: Acetyllysine: 0.3
- Metabolite data: Aconitate: -0.02
- Metabolite data: CDP: 0.18
- Metabolite data: CDP-Ethanolamine: 0.69
- Metabolite data: CDP-choline: 0
- Metabolite data: CMP: -0.07
- Metabolite data: CTP: -0.11
- Metabolite data: Citrate/Isocitrate: 0.01
- Metabolite data: Cyclic-AMP: 0
- Metabolite data: Dihydroorotate: 0.21
- Metabolite data: FAD: 0.03
- Metabolite data: FMN: -0.26
- Metabolite data: Fructose-1,6-Bisphosphate: 0
- Metabolite data: Fumarate: 0.11
- Metabolite data: GDP: 0.23
- Metabolite data: GMP: 0.07
- Metabolite data: GTP: -0.36
- Metabolite data: Glucose-1/6-Phosphate: -0.02
- Metabolite data: Glutathione Disulfide: 0.14
- Metabolite data: Hexose: 0
- Metabolite data: Hydroxyisocaproic acid: 0
- Metabolite data: Indole: 0.05
- Metabolite data: Ketoleucine: 0
- Metabolite data: L-arginino-succinate: 0
- Metabolite data: Lactate: 0.42
- Metabolite data: Malate: 0.06
- Metabolite data: Myo-Inositol: 0.64
- Metabolite data: N-Acetyl-Glutamate: 0.09
- Metabolite data: N-Acetyl-L-Alanine: 0.02
- Metabolite data: N-Acetyl-L-Ornithine: 0.2
- Metabolite data: N-Carbamoyl-L-Aspartate: 0.03
- Metabolite data: NAD+: 0.17
- Metabolite data: NADH: 3.14
- Metabolite data: NADP+: 0.03
- Metabolite data: NADPH: 0.5
- Metabolite data: Nicotinate: 0.23
- Metabolite data: Octulose 8/1-Phosphate: 0.08
- Metabolite data: Orotate: 0.09
- Metabolite data: PD: 0
- Metabolite data: PE: 0
- Metabolite data: PEEK: 0
- Metabolite data: Phenol Red: 0
- Metabolite data: Pyroglutamic acid: 0.03
- Metabolite data: S-Adenosyl-L-Homocysteine: 0
- Metabolite data: S-methyl-5'-thioadenosine: 0.14
- Metabolite data: SD: 0
- Metabolite data: Sedoheptulose Bisphosphate: 0.08
- Metabolite data: UDP: 0.22
- Metabolite data: UDP-D-Glucose: 0.05
- Metabolite data: UDP-D-Glucuronate: 0.01
- Metabolite data: UDP-N-Acetyl-Glucosamine: 0.06
- Metabolite data: UMP: 0
- Metabolite data: UTP: -0.42
- Metabolite data: a-ketoglutarate: 0.08
- Metabolite data: acetyl-aspartate: 0
- Metabolite data: arginine: 0
- Metabolite data: asparagine: 0
- Metabolite data: aspartate: 0
- Metabolite data: biotin: 0
- Metabolite data: chlorpropamide: 0
- Metabolite data: coenzyme A: 0
- Metabolite data: dAMP: -0.3
- Metabolite data: dATP: -0.89
- Metabolite data: dCDP: 0.46
- Metabolite data: dCMP: 0.32
- Metabolite data: dCTP: 0.42
- Metabolite data: dGDP/ADP: 0
- Metabolite data: dGMP/AMP: 0
- Metabolite data: dGTP/ATP: 0
- Metabolite data: dTDP: 0.16
- Metabolite data: dTMP: -0.05
- Metabolite data: dTTP: -0.28
- Metabolite data: folate: 0
- Metabolite data: glucono-lactone: 0
- Metabolite data: glutamate: 0
- Metabolite data: glutamine: 0
- Metabolite data: glutathione: 0
- Metabolite data: histidine: 0
- Metabolite data: hydroxyproline/Aminolevulinate: 0
- Metabolite data: isoleucine: 0
- Metabolite data: leucine: 0
- Metabolite data: maleic acid: 0
- Metabolite data: methionine: 0
- Metabolite data: nicotinamide mononucleotide: 0
- Metabolite data: orotidine-5'-phosphate: 0
